Measured values published in patent US5593965A, “Anti-tumor effects of GnRH-III” (Creighton University, priority 1994, dated 1997).
Entries after “also recorded” stand apart in the source; their conditions may differ.

Key:
ovulation in rats [1] = conditions: cited from earlier work
rat pituitary cells = assay: Superfused rat pituitary cell system (LH release); assay type: cell-based
Procedure: The GnRH activity of the peptides were assayed by using the superfused rat pituitary cell system as described by Vigh and Schally, Peptides, 5:241-247, Suppl. 1, (1984) and Csernus and Schally, Neuroendocrine Research Methods, Greenstein, B., ed., Harwood Academic Publishers, London, pp66-102 (1985). Mixed cell populations of four regularly cycling female rats, at random stages of the estrous cycle, were used in each chamber of a superfusion apparatus. The cells were perfused for 12 hours with Medium 199 (Sigma) at a flow rate of 20 ml/hour, prior to administration of the peptides. […] The peptide-containing solutions are prepared from the stock solution immediately before use. At the beginning of each experiment, cells were rechallenged with potassium to check the secretability of Luteinizing Hormone, independent of the participation of specific hormone recptors. Fractions, 1 ml per 3 minutes, were collected and the concentration of Luteinzing Hormone was determined by radioimmunoassay. NIAMD radioimmunoassay kits were used for the Luteinizing Hormone and Follicle Stimulating Hormone assays. The superfusion data was analyzed by the computer program of Csernus and Schally (1985).

MDA-MB-231 cell line = assay type: cell-based, human; conditions: dose range 1-50 μM
Description: (§1) Two human breast cancer cell lines were used. They were: (1) the estrogen receptor positive MCF-7 cell line and (2) the estrogen receptor negative MDA-MB-231 cell line. Both cell lines contain GnRH receptors. These cell lines were used to illustrate the anticancer effects of GnRH-III. The cells were maintained in Dulbecco-modified Eagle-minimal essential medium (DMEM, GIBCO) containing 10% fetal calf serum (10% FCS). The clonogenic assay provides information on the cell damaging effects of a substance in a dose-dependent manner. Three hundred cells were transferred into 35 mm Petri dishes in 2.5 ml of medium. On the following day, the cultures were treated with 1, 5, 10, 20, 30 and 50 μM doses of GnRH-III. Colonies which developed from specific cells were stained with crystal violet and counted on days 8 to 12 after treatment. Colony numbers of untreated control cultures were counted for comparison.

MCF-7 cell line = assay type: cell-based, human; conditions: dose range 1-50 μM
Description: as §1

[2] = system: human breast cancer cell lines; assay type: cell-based
Description: as §1, with “comparison. The antiproliferation assay used herein measures the inhibition of cell proliferation due to drug exposure. Loose subconfluent cultures (6×10^5 -1×10^6 cells) in 100 mm Petri dishes were initiated and treated with 1, 5, 10, 20, 30 and 50 μM doses of GnRH-III on every other day for various periods of time. On day 6, the cell numbers of both control and treated cultures were counted in a Neubauer-type hemocytometer.” for “comparison.”

ovulation in rats [3] = assay: In vivo assay of inhibition of ovulation (chemical castration); design: species or system rat
Procedure: Adult female rates(Wistar-R-Amsterdam), 200-250 grams, housed under controlled lighting (light period 05:00 to 19:00) with free access to pelleted food and tap water were used herein. For the in vivo assay of inhibition of ovulation, aliquots of peptide solutions were injected subcutaneously into female rats at noon on the day of proestrous for single-dose tests and every day at noon for long term tests. Only rats which had previously shown three consecutive regular 4-day cycles, as indicated by vaginal smears test, were used herein. Animals were ovariectomized on the day of the first diestrous after the injection. Oviducts were prepared under stereo-microscope and tested for ova as is well known in the art.

Compound	effective doses on ovulation (ovulation in rats [1])	induction of LH release (rat pituitary cells; doses 10^-9 -10^-7 M)	inhibition of LH release induced by native GnRH (rat pituitary cells; doses 10^-9 -10^-7 M)	colony formation (MDA-MB-231 cell line)	colony formation (MCF-7 cell line)	decrease in cloning efficiency ([2]; at 30 μM)	anticancer activity compared with other GnRH analogs ([2]; in vitro, human breast cancer cell lines)	LH release at high concentration (rat pituitary cells; 10^-6 M)	agonist/antagonist character in mammalian pituitary gland (rat pituitary cells; doses of 10^-9 to 10^-7 M)	influence on ovulation (ovulation in rats [3]; female rats, subcutaneous, doses of 10^-9 to 10^-7 M)	function of gonads (ovulation in rats [3]; rats)	histology of ovary (ovulation in rats [3]; rats, repeated injections)
human GnRH: hypothalamic peptide hormone stimulating release of Luteinizing Hormone and Follicle Stimulating Hormone (QHWSYGLRPG; Gonadoliberin-1; UniProt P01148 24-33, looked up) [reference compound]	10^-9 to 10^-7 M	did not induce Luteinizing Hormone (LH)-release	neither did it inhibit the LH-release induced by native GnRH	–	–	–	–	–	–	–	–	–
[B-Asp(α-diethylamide^6 ],Gln^8)GnRH [TH-332, reference compound]	–	–	–	did not inhibit colony formation	did not inhibit colony formation	–	–	–	–	–	–	–
NCCCC[C@H](NC(=O)[C@H](Cc1c[nH]c2ccccc12)NC(=O)[C@H](CC(=O)O)NC(=O)[C@H](Cc1c[nH]cn1)NC(=O)[C@H](CO)NC(=O)[C@H](Cc1c[nH]c2ccccc12)NC(=O)[C@H](Cc1c[nH]cn1)NC(=O)[C@@H]1CCC(=O)N1)C(=O)N1CCC[C@H]1C(=O)NCC(N)=O [GnRH-III]	–	–	–	inhibited colony formation	inhibited colony formation	65-80%	surpass that of the well known agonists Buserelin, Decapeptyl and Ovurelin, and to approximate that of the antagonists SB-30 and MI-1544	did cause LH release	neither agonist, nor antagonist	no influence on ovulation	did not influence the function of gonads; also recorded: does not influence gonadal function	did not change histology of ovary; also recorded: did not change the histological character of ovary
